Reference: the supplement of paper PMC10307832

What was measured:
Experiment in all cases: relative viability (nuclei count vs DMSO), 5 days (fraction); higher = more cells survive
Mirin + Bortezomib = compound: N=C1NC(=O)/C(=C/c2ccc(O)cc2)S1 [Mirin] + CC(C)C[C@H](NC(=O)[C@H](Cc1ccccc1)NC(=O)c1cnccn1)B(O)O [Bortezomib] (partner 0.002 µM)
Outline: (§1)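 Lung cancer cell lines, seeded in 1536-well plates, were treated the following day by pin tool with a single drug or with five library-drug doses (not always all listed) in √10 steps on top of a fixed anchor-drug dose. Cells were fixed and nuclei stained in one step after 5 days, and nuclei were counted. Relative viability is the nuclei count for treated wells divided by that for vehicle wells, reported as medians of duplicate plates.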

Mirin + Decitabine = compound: N=C1NC(=O)/C(=C/c2ccc(O)cc2)S1 [Mirin] + Nc1ncn([C@H]2C[C@H](O)[C@@H](CO)O2)c(=O)n1 [Decitabine] (partner 2 µM)
Outline: as §1

[1] = compound: CCn1c(-c2nonc2N)nc2cnc(Oc3cccc(NC(=O)c4ccc(OCCN5CCOCC5)cc4)c3)cc21 + Cc1nc(Nc2ncc(C(=O)Nc3c(C)cccc3Cl)s2)cc(N2CCN(CCO)CC2)n1 [Dasatinib] (partner 0.075 µM)
Outline: as §1

[2] = compound: CCn1c(-c2nonc2N)nc2cnc(Oc3cccc(NC(=O)c4ccc(OCCN5CCOCC5)cc4)c3)cc21 + Cc1cc(Nc2cc(N3CCN(C)CC3)nc(Sc3ccc(NC(=O)C4CC4)cc3)n2)n[nH]1 [Tozasertib] (partner 0.1 µM)
Outline: as §1

UMC-11
relative viability (Mirin + Bortezomib; first compound 0.25 µM): 0.876
relative viability (Mirin + Bortezomib; first compound 0.7906 µM): 0.457
relative viability (Mirin + Bortezomib; first compound 2.5 µM): 0.629
relative viability (Mirin + Bortezomib; first compound 7.906 µM): 0.636
relative viability (Mirin + Bortezomib; first compound 25 µM): 0.547
relative viability (Mirin + Decitabine; first compound 0.25 µM): 0.533
relative viability (Mirin + Decitabine; first compound 2.5 µM): 0.572
relative viability (Mirin + Decitabine; first compound 7.906 µM): 0.54
relative viability (Mirin + Decitabine; first compound 25 µM): 0.418
relative viability ([1]; first compound 0.04 µM): 0.37
relative viability ([1]; first compound 0.1265 µM): 0.415
relative viability ([1]; first compound 0.4 µM): 0.337
relative viability ([1]; first compound 1.265 µM): 0.214
relative viability ([1]; first compound 4 µM): 0.182
relative viability ([2]; first compound 0.04 µM): 0.206
relative viability ([2]; first compound 0.1265 µM): 0.212
relative viability ([2]; first compound 0.4 µM): 0.205
relative viability ([2]; first compound 1.265 µM): 0.16
relative viability ([2]; first compound 4 µM): 0.186
